Laboratory results taken from ChEMBL document CHEMBL1201862, “PubChem BioAssay data set” (2004).
Activity calls are given as the source filed them.

Test system: INS1
Experiment: beta cell apoptosis inhibitors, cytokine rescue, dose response, luminescence, retest (AID 449756);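 further: cell death triggered by IL-1 beta plus TNF-alpha plus IFN-gamma mixture; protective hits raise ATP signal compared with cytokine alone wells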
Assay type: functional, cell-based
Settings: Rattus norvegicus

| Compound | AC50 |
| --- | --- |
| Cc1nc2ccccc2c2oc(C(=O)Nc3ccc(C(C)C)cc3)cc12 | 18.8 µM (active) |
| O=S(=O)(c1ccc(F)c(F)c1F)N1CCN(c2ncnc3sccc23)CC1 | 4.95 µM (active) |
| CCOc1ccc(N(C)S(=O)(=O)c2ccc(C)c(C(=O)OCC(=O)c3c[nH]c4ccccc34)c2)cc1 | 11.3 µM (active) |
| CCCC(=O)N(CCN(C(=O)CCC)c1ccccc1)c1ccccc1 | 183 µM (active) |

Test system: not listed separately
Experiment: Shn3 3'UTR reporter inhibitors, dose response, cell-based, Clone20 osteoblasts, firefly luciferase, cherry-picked (AID 624132);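 further: firefly luciferase luminescence from reporter carrying the Shn3 3'UTR in osteoblasts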
Assay type: functional
Settings: not given

| Compound | AC50 |
| --- | --- |
| CC(=O)c1cccc(NS(=O)(=O)c2ccc(N/C=C\C(=O)c3ccc(C)cc3)cc2)c1 | 1.51 µM (active) |
| CCN1CCN(Cc2ccc(NC(=O)c3ccc(C)c(NC(=O)c4cncc(-c5cccs5)c4)c3)cc2C(F)(F)F)CC1 | 0.808 µM (active) |
| COc1cc(OC)c(OC)cc1CNC(=O)c1cccc(S(=O)(=O)N2CCc3ccccc3C2)c1 | 2.39 µM (active) |
| CCCC(c1nnnn1Cc1ccc(OC)cc1)N1CCN(c2ccccc2)CC1 (stereo not drawn) | 31.9 µM (active) |

Test system: not listed separately
Experiment: control 3'UTR Renilla luciferase suppression, dose response, counter-screen for Shn3 inhibitor project, cell-based, Clone20-Shn3RL, cherry-picked (AID 624133)
Assay type: functional
Settings: not given

| Compound | AC50 |
| --- | --- |
| CC(=O)c1cccc(NS(=O)(=O)c2ccc(N/C=C\C(=O)c3ccc(C)cc3)cc2)c1 | 19.6 µM (active) |
| CCN1CCN(Cc2ccc(NC(=O)c3ccc(C)c(NC(=O)c4cncc(-c5cccs5)c4)c3)cc2C(F)(F)F)CC1 | 0.898 µM (active) |
| COc1cc(OC)c(OC)cc1CNC(=O)c1cccc(S(=O)(=O)N2CCc3ccccc3C2)c1 | 24 µM (active) |

Molecular target: T1, Heat shock factor protein 1 (Mus musculus, UniProt P38532)
T1 sequence (P38532 whole entry): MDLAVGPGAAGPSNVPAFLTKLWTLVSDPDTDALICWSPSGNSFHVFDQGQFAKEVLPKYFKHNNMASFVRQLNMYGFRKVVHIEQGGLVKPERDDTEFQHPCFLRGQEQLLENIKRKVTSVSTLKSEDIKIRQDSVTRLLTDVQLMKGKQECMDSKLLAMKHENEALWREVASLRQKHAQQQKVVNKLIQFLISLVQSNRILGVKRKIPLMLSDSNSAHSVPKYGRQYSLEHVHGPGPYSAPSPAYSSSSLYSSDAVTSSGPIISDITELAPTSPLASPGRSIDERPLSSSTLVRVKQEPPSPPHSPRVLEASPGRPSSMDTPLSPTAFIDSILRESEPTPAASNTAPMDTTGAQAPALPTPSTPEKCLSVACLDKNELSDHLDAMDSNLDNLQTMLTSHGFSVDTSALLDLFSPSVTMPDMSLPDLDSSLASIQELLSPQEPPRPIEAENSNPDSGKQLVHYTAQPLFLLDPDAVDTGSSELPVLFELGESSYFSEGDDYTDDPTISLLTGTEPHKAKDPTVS
Experiment: HSF1 potentiators in luciferase reporter cells, confirmation, cell-based, NIH3T3, luminescence, dose retest (AID 435004);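 further: stress induced by proteasome inhibitor MG132 added 30 min after compound; luciferase reporter driven by HSF1 response element in NIH3T3 cells; actives raise luminescence as potentiators of the MG132 stress response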
Assay type: functional
Settings: not given

| Compound | EC50 |
| --- | --- |
| Cc1cc(C)n(-c2cc(=O)n(C)c(=O)n2C)n1 | > 260 µM (inactive) |
| Cc1ccc(-c2csc3ncnc(O)c23)c(C)c1 | > 260 µM (inactive) |
| Cn1c(=O)c2c(nc(NCCO)n2C)n(C)c1=O | > 260 µM (inactive) |

The remaining lines, values ahead:

| EC50 | Compound |
| --- | --- |
| > 260 µM (inactive) | O=S(=O)(NC(=Nc1cccc2ccccc12)c1ccccc1)c1ccc(F)cc1 |
| > 260 µM (inactive) | Cc1cccc(N2C(=N)SCC2=O)c1C |
| > 260 µM (inactive) | COc1ccc(N=C(S)Nc2ccccc2SC)c(OC)c1 |
| > 260 µM (inactive) | Cn1c(CCC(=O)OCC(=O)Nc2ccc(Oc3ccccc3)cc2)nc(=O)c2ccccc21 |
| > 260 µM (inactive) | N#Cc1ccccc1COC(=O)c1cc(=O)c2ccccc2o1 |
| > 260 µM (inactive) | COc1ccc(C)cc1Cn1c(S(C)(=O)=O)nc2ccccc21 |
| > 260 µM (inactive) | CCc1nnc(N/N=C/c2ccccc2Cl)n1N |
| > 260 µM (inactive) | O=C(NCc1ccco1)C1CC(O)CN1C(=O)Nc1ccccc1 (stereo not drawn) |
| > 260 µM (inactive) | O=C(COC(=O)C1CSC2(c3ccc(F)cc3)CCC(=O)N12)NC(=O)NC1CCCC1 (stereo not drawn) |
| > 260 µM (inactive) | CCN(CC)S(=O)(=O)c1ccc2c(c1)nc(SCC(=O)NC1CC1)n2-c1ccccc1OC |

Molecular target: Cytochrome P450 2C9 (Homo sapiens, UniProt P11712)
Experiment: not given
Settings: not given

Chain of Cytochrome P450 2C9 (P11712 whole entry): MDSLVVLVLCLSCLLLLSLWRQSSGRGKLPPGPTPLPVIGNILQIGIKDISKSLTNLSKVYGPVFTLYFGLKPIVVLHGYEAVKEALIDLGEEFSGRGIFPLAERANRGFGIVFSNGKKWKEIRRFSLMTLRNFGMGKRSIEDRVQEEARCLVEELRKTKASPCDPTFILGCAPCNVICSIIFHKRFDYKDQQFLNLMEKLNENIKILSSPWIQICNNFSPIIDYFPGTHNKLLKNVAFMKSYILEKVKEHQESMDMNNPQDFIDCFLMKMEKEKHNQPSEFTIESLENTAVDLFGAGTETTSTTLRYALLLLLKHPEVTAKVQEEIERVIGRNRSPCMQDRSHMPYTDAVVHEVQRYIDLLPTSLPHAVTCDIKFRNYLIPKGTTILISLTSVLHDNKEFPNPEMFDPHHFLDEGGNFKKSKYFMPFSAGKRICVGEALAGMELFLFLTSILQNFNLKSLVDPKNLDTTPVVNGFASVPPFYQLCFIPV

| Compound | AC50 |
| --- | --- |
| CC(C)c1ccc(/C(C(=O)O)=C(\O)C(=O)O)cc1 | 3.16 µM (inconclusive) |
| O=C1C(CC[S+]([O-])c2ccccc2)C(=O)N(c2ccccc2)N1c1ccccc1 (stereo not drawn) [SULFINPYRAZONE] | 10 µM (inconclusive) |

The next lines start with the values.

| AC50 | Compound |
| --- | --- |
| 20 µM (inconclusive) | COCC(=O)N1CCC2(CCCN(c3ccc(-c4ccccc4)cc3)C2)CC1 |
| 35.5 µM (inconclusive) | COCCN1C(=O)c2ccccc2C(C(=O)Nc2ccc3c(c2)OCCO3)C1c1ccc(F)cc1 (stereo not drawn) |
| 28.2 µM (inconclusive) | CCn1c(SCC(=O)c2ccccc2)nnc1-c1cccs1 |
| 5.01 µM (inconclusive) | O=C(/C=C/c1ccc(Cl)cc1)NCCSc1ccccc1 |

Test system: not listed separately
Experiment: HepG2 cell cytotoxicity, dose response, cytotoxicity control for Shn3 inhibitor project, CellTiter-Glo, cherry-picked (AID 624134)
Assay type: functional, cell-based
Settings: not given

| Compound | AC50 |
| --- | --- |
| CC(=O)c1cccc(NS(=O)(=O)c2ccc(N/C=C\C(=O)c3ccc(C)cc3)cc2)c1 | > 70 µM (inactive) |
| CCN1CCN(Cc2ccc(NC(=O)c3ccc(C)c(NC(=O)c4cncc(-c5cccs5)c4)c3)cc2C(F)(F)F)CC1 | 7.28 µM (active) |
| COc1cc(OC)c(OC)cc1CNC(=O)c1cccc(S(=O)(=O)N2CCc3ccccc3C2)c1 | 3.08 µM (active) |
